Like-named read-outs stand apart in the source and are kept apart here.
Columns and labels:
Wee1 kinase domain = target: T1, Wee1 kinase domain (Homo sapiens, UniProt P30291); assay: Wee1 Kinase Biochemical Assay (ADP-Glo); settings: 15 uM ATP
T1 construct: Wee1 kinase domain was purchased from Carna (catalog #05-177); purchased Carna 05-177
In short: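 Compounds tested against 1 nM Wee1 kinase domain in Tris buffer containing 20 mM MgCl2, BSA and 2 mM DTT, with 15 uM ATP and poly(Lys,Tyr) substrate for 4 h at 25 °C. Luminescent ADP detection gave percent inhibition, normalized to DMSO and saturating inhibitor.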

[1] = test system: phosphorylation of Cdc2 Y15 (Wee1 substrate) in A427 cells; assay: Phosphorylated Cdc2 MSD Electrochemiluminescence Assay; type: cell-based; settings: Homo sapiens
In short: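 Read-out: percent residual phospho-Cdc2 Y15 relative to DMSO and positive-control Wee1 inhibitor, measured by MSD electrochemiluminescence capture/detection antibody assay in cell lysates. A427 cells received duplicate 3-fold compound dilution series 20 h post-seeding, with 6 h total incubation at 37 °C.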

[2] = class symbols, 1 nM Wee1 enzyme, 4 hours at 25° C.
[3] = A-427, class symbols, read-out: A427 pCDC2 MSD IC50

T1 sequence (P30291 299-569 limits assumed): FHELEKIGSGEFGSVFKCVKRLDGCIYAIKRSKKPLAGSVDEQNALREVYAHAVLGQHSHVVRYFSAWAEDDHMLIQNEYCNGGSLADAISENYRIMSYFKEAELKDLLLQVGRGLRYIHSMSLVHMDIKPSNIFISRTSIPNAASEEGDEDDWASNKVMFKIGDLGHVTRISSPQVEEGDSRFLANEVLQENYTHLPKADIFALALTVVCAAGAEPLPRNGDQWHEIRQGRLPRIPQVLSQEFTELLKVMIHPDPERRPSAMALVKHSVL

Structure (SMILES)	IC50 (Wee1 kinase domain; [2])	IC50 [1, 3]	IC50 (Wee1 kinase domain; Wee1 kinase domain, ADP-Glo)	IC50 ([1]; A-427, pCDC2 MSD)
CN1CCN(c2ccc(Nc3ncc4c(n3)N(c3cccc(N5C(=O)CCC5(C)C)n3)[C@@H]3CC(C)(C)OC[C@]43C)cc2)CC1 (single isomer, unassigned) [Example 729]	< 10 nM	100 to 1000 nM	–	–
Cc1cc(Nc2ncc3c(n2)N(c2cccc(N4CCOC4=O)n2)[C@@H]2CC(C)(C)OC[C@]32C)ccc1N1C[C@H]2C[C@@H]1CN2C [Example 660, 3-(6-((4bR,8aR)-4b,7,7-trimethyl-2-((3-methyl-4-((1R,4R)-5-methyl-2,5-diazabicyclo[2.2.1]heptan-2-yl)phenyl)amino)-4b,7,8,8a-tetrahydropyrano[3′,4′:4,5]pyrrolo[2,3-d]pyrimidin-9(5H)-yl)pyridin-2-yl)oxazolidin-2-one]	< 10 nM	100 to 1000 nM	–	–
CNCc1cccc(N2c3nc(Nc4ccc(C5CCOCC5)nc4)ncc3[C@@]3(C)COC(C)(C)C[C@@H]23)n1 (single isomer, unassigned) [Example 56]	–	–	< 10 nM	100 to 1000 nM
Cn1cc([C@H]2C[C@@H]2C(=O)Nc2ncc3c(n2)N(c2cccc(N=S(C)(C)=O)n2)[C@@H]2CC(C)(C)OC[C@]32C)cn1 (single isomer, unassigned) [Example 406]	< 10 nM	100 to 1000 nM	–	–
CNCc1cccc(N2c3nc(Nc4ccc([C@H]5CCC(=O)N5C)cc4)ncc3[C@@]3(C)COC(C)(C)C[C@@H]23)n1 (single isomer, unassigned) [Example 54]	–	–	< 10 nM	< 100 nM
C[C@H]1CCC(=O)N1c1cccc(N2c3nc(Nc4cnn(C5CCN(C)CC5)c4)ncc3C3(C)COC(C)(C)CC23)n1 (stereo in doubt) [Example 556, (S)-5-methyl-1-(6-((4bR,8aR)-4b,7,7-trimethyl-2-((1-(1-methylpiperidin-4-yl)-1H-pyrazol-4-yl)amino)-4b,7,8,8a-tetrahydropyrano[3′,4′:4,5]pyrrolo[2,3-d]pyrimidin-9(5H)-yl)pyridin-2-yl)pyrrolidin-2-one]	< 10 nM	100 to 1000 nM	–	–
CN1CC[C@](C)(c2ccc(Nc3ncc4c(n3)N(c3cccc(N=S(C)(C)=O)n3)[C@@H]3CC(C)(C)OC[C@]43C)cc2)C1 (single isomer, unassigned) [Example 168]	–	–	< 10 nM	< 100 nM
C[C@H]1COC(=O)N1c1cccc(N2c3nc(Nc4ccc(O[C@H]5CCN(C)C5)nc4)ncc3[C@@]3(C)COC(C)(C)C[C@@H]23)n1 (single isomer, unassigned) [Example 281]	–	–	< 10 nM	100 to 1000 nM
C[C@H]1CN(c2ccc(Nc3ncc4c(n3)N(c3cccc(N5C(=O)OC[C@@H]5C)n3)[C@@H]3CC(C)(C)OC[C@]43C)cc2)CCN1C (single isomer, unassigned) [Example 315]	–	–	< 10 nM	100 to 1000 nM
CNC1(c2cccc(N3c4nc(Nc5ccc(N6CCOCC6)cc5)ncc4[C@@]4(C)COC(C)(C)C[C@@H]34)n2)CC1 (single isomer, unassigned) [Example 543]	< 10 nM	100 to 1000 nM	–	–
CN1C[C@H]2C[C@@H]1CN2c1ccc(Nc2ncc3c(n2)N(c2cccc(C(C)(C)O)n2)[C@@H]2CC(C)(C)OC[C@]32C)cc1Cl (single isomer, unassigned) [Example 433]	< 10 nM	100 to 1000 nM	–	–
CN1C[C@@H]2CN(c3ccc(Nc4ncc5c(n4)N(c4cccc(C(C)(C)O)n4)[C@@H]4CC(C)(C)OC[C@]54C)cc3)C[C@@H]2C1 (single isomer, unassigned) [Example 446]	< 10 nM	100 to 1000 nM	–	–
CNCc1cccc(N2c3nc(Nc4ccc(N5C[C@@H]6C[C@H]5CO6)cc4)ncc3[C@@]3(C)COC(C)(C)C[C@@H]23)n1 (single isomer, unassigned) [Example 41]	–	–	< 10 nM	< 100 nM
CN1CCC(c2cc(Nc3ncc4c(n3)N(c3cccc(N=S(C)(C)=O)n3)[C@@H]3CC(C)(C)OC[C@]43C)on2)CC1 (single isomer, unassigned) [Example 204]	–	–	< 10 nM	100 to 1000 nM

Source: patent publication US20260166039A1 (SCHRÖDINGER, INC., priority 2022, published 2026)
